This note sets out measurements from patent US8592486B2, “Compounds for inflammation and immune-related uses” (Synta Pharmaceuticals Corp., priority 2005, dated 2013).

Each structure is given as a SMILES string. Counter-ions that a name gives are not always drawn.

The test system of the first test is IL-2 production. The test can be described thus: Inhibition of IL-2 production in PHA-activated Jurkat cells (ELISA). The class given is cell-based, human. Conditions: Homo sapiens, Jurkat, 20 h, Jurkat cells, PHA 2.5 μg/mL, 20 hours, IL-2 ELISA; read-out: IC50 (inhibition of IL-2 production). Here is the method:
Jurkat cells were placed in a 96 well plate (0.5 million cells per well in 1% FBS medium) then a test compound of this invention was added at different concentrations. After 10 minutes, the cells were activated with PHA (final concentration 2.5 μg/mL) and incubated for 20 hours at 37° C. under CO2. The final volume was 200 μL. Following incubation, the cells were centrifuged and the supernatants collected and stored at −70° C. prior to assaying for IL-2 production. A commercial ELISA kit (IL-2 Eli-pair, Diaclone Research, Besancon, France) was used to detect production of IL-2, from which dose response curves were obtained. The IC50 value was calculated as the concentration at which 50% of maximum IL-2 production after stimulation was inhibited versus a non-stimulation control.
Take `Cc1ccc(-c2nccs2)cc1-c1ccc(NC(=O)c2c(F)cncc2F)cc1` [Compound 28, 3,5-Difluoro-N-[5′-(thiazol-2-yl)-2′-methyl-biphenyl-4-yl]-isonicotinamide]: the IC50 was 7 nM.
Regarding `Cc1ccc(-c2ccncc2)cc1-c1ccc(NC(=O)c2c(F)cccc2F)cc1` [Compound 30, 2,6-Difluoro-N-[2′-methyl-5′-(pyridine-4-yl)-biphenyl-4-yl]-benzamide], the IC50 is 3 nM.
With `O=C(Nc1ccc(-c2cc(-c3ncco3)ccc2Cl)cc1)c1c(F)cccc1F` [Compound 31], the IC50 turned out to be 6 nM.
On the same count and under the same terms, then `Cc1cnccc1C(=O)Nc1ccc(-c2cc(-c3ccno3)ccc2C)cc1` [Compound 32, 3-Methyl-N-[5′-(isoxazol-5-yl)-2′-methyl-biphenyl-4-yl]-isonicotinamide], with 4 nM; and `Cc1ccc(-c2ccno2)cc1-c1ccc(NC(=O)c2snnc2C)cc1` [Compound 33, 4-Methyl-[1,2,3]thiadazole-5-carboxylic acid [2′-methyl-5′-(isoxazol-5-yl)-biphenyl-4-yl]-amide], with 4 nM; and `Cc1cc(-c2ccc(C)c(-c3ccc(NC(=O)c4c(F)cccc4F)cc3)c2)on1` [Compound 35, 2,6-Difluoro-N-[2′-methyl-5′-(3-methyl-isoxazole-5-yl)-biphenyl-4-yl]-benzamide], with 2 nM.
For `Cc1cc(-c2ccc(C)c(-c3ccc(NC(=O)c4ccncc4C)cc3)c2)on1` [Compound 36, 3-Methyl-N-[5′-(3-methyl-isoxazol-5-yl)-2′-methyl-biphenyl-4-yl]-isonicotinamide], the IC50 came to 4 nM.
On the same count and under the same terms, then `Cc1cc(-c2ccc(C)c(-c3ccc(NC(=O)c4c(F)cccc4F)cc3)c2)[nH]n1` [Compound 37, 2,6-Difluoro-N-[2′-methyl-5′-(3-methyl-1H-pyrazol-5-yl)-biphenyl-4-yl]-benzamide], with 11 nM; and `Cc1csc(-c2ccc(C)c(-c3ccc(NC(=O)c4c(F)cccc4F)cc3)c2)n1` [Compound 38, 2,6-Difluoro-N-[2′-methyl-5′-(4-methyl-thiazol-2-yl)-biphenyl-4-yl]-benzamide], with 3 nM; and `Cc1ccc(-c2nc(C(F)(F)F)cs2)cc1-c1ccc(NC(=O)c2c(F)cccc2F)cc1` [Compound 39], with 13 nM.
Same read-out and setting: then `Cc1csc(-c2ccc(C)c(-c3ccc(NC(=O)c4ccncc4C)cc3)c2)n1` [Compound 40, 3-Methyl-N-[5′-(4-methyl-thiazol-2-yl)-2′-methyl-biphenyl-4-yl]-isonicotinamide], with 11 nM.
On the same count and under the same terms, then `Cc1ccc(-c2ccc[nH]2)cc1-c1ccc(NC(=O)c2c(F)cccc2F)cc1` [Compound 41, 2,6-Difluoro-N-[2′-methyl-5′-(1H-pyrrol-2-yl)-biphenyl-4-yl]-benzamide], with 18 nM; and `Cc1ccc(-c2noc(=O)[nH]2)cc1-c1ccc(NC(=O)c2c(F)cccc2F)cc1` [Compound 42, 2,6-Difluoro-N-[2′-methyl-5′-(5-oxo-4,5-dihydro-[1,2,4]-oxadiazol-3-yl)-biphenyl-4-yl]-benzamide], with over 1000 nM.
For the molecule `Cc1ccc(N2CCOCC2)cc1-c1ccc(NC(=O)c2c(F)cccc2F)cc1` [Compound 43, 2,6-Difluoro-N-[2′-methyl-5′-(morpholino-4-yl)-biphenyl-4-yl]-benzamide], the IC50 turned out to be 26 nM.
Still for that read-out and setting: then `Cc1cnccc1C(=O)Nc1ccc(-c2cc(-c3nnn[nH]3)ccc2C)cc1` [Compound 44, 3-Methyl-N-[2′-methyl-5′-(1H-tetrazol-5-yl)-biphenyl-4-yl]-isonicotinamide], with over 1000 nM; and `O=C(Nc1ccc(-c2cc(-c3ncco3)ccc2Cl)cc1)c1c(F)cncc1F` [Compound 45, 3,5-Difluoro-N-[5′-(oxazol-2-yl)-2′-chloro-biphenyl-4-yl]-isonicotinamide], with 50 nM.
Still for that read-out and setting: then `COc1ccc(-c2ccco2)cc1-c1ccc(NC(=O)c2ccncc2C)cc1` [Compound 47, 3-Methyl-N-[2′-methoxy-5′-(furan-2-yl)-biphenyl-4-yl]-isonicotinamide], with 59 nM; and `Cc1cnccc1C(=O)Nc1ccc(-c2cc(-c3ncco3)ccc2N(C)C)cc1` [Compound 48, 3-Methyl-N-[5′-(oxazol-2-yl)-2′-(N,N-dimethylamino)-biphenyl-4-yl]-isonicotinamide], with 320 nM; and `Cc1cnccc1C(=O)Nc1ccc(-c2cc(-c3nnnn3C)ccc2C)cc1` [Compound 49, 3-Methyl-N-[2′-methyl-5′-(1-methyl-1H-tetrazol-5-yl)-biphenyl-4-yl]-isonicotinamide], with 12 nM.
Still for that read-out and setting: then `COc1ccc(-c2ncco2)cc1-c1ccc(NC(=O)c2ccncc2C)cc1` [Compound 50, 3-Methyl-N-[5′-(oxazol-2-yl)-2′-methoxy-biphenyl-4-yl]-isonicotinamide], with 23 nM; and `COc1ccc(-c2ncco2)cc1-c1ccc(NC(=O)c2c(F)cncc2F)cc1` [Compound 51, 3,5-Difluoro-N-[5′-(oxazol-2-yl)-2′-methoxy-biphenyl-4-yl]-isonicotinamide], with 11 nM; and `COc1ccc(-c2cccs2)cc1-c1ccc(NC(=O)c2ccncc2C)cc1` [Compound 52, 3-Methyl-N-[5′-(thien-2-yl)-2′-methoxy-biphenyl-4-yl]-isonicotinamide], with 35 nM.
Turning to `Cc1ccc(-c2nncs2)cc1-c1ccc(NC(=O)c2c(F)cncc2F)cc1` [Compound 53, 3,5-Difluoro-N-[5′-([1,3,4]thiadiazol-2-yl)-2′-methyl-biphenyl-4-yl]-isonicotinamide], the IC50 came to 6 nM.
As for `Cc1ccc(-c2nccs2)cc1-c1ccc(NC(=O)c2ccncc2F)cc1` [Compound 54, 3-Fluoro-N-[5′-(thiazol-2-yl)-2′-methyl-biphenyl-4-yl]-isonicotinamide], the IC50 was found to be 12 nM.
With `Cc1cnccc1C(=O)Nc1ccc(-c2cc(-c3nccs3)ccc2Cl)cc1` [Compound 55, 3-Methyl-N-[5′-(thiazol-2-yl)-2′-chloro-biphenyl-4-yl]-isonicotinamide], the IC50 is 6 nM.
Still for that read-out and setting: then `O=C(Nc1ccc(-c2cc(-c3nccs3)ccc2Cl)cc1)c1c(F)cccc1F` [Compound 56, 2,6-Difluoro-N-[2′-chloro-5′-(thiazol-2-yl)-biphenyl-4-yl]-benzamide], with 2 nM.
Still for that read-out and setting: then `O=C(Nc1ccc(-c2cc(-c3nccs3)ccc2Cl)cc1)c1c(F)cncc1F` [Compound 57, 3,5-Difluoro-N-[5′-(thiazol-2-yl)-2′-chloro-biphenyl-4-yl]-isonicotinamide], with 3 nM; and `O=C(Nc1ccc(-c2cc(-c3nccs3)ccc2Cl)cc1)c1ccncc1F` [Compound 58, 3-Fluoro-N-[5′-(thiazol-2-yl)-2′-chloro-biphenyl-4-yl]-isonicotinamide], with 2 nM; and `Cc1ccc(-c2nncs2)cc1-c1ccc(NC(=O)c2c(F)cccc2F)cc1` [Compound 59, 2,6-Difluoro-N-[2′-methyl-5′-([1,3,4]thiadiazol-2-yl)-biphenyl-4-yl]-benzamide], with 3 nM.
In the case of `Cc1cnccc1C(=O)Nc1ccc(-c2cc(-c3nncs3)ccc2C)cc1` [Compound 60, 3-Methyl-N-[5′-([1,3,4]thiadiazol-2-yl)-2′-methyl-biphenyl-4-yl]-isonicotinamide], the IC50 stood at 13 nM.
The same measure, in the same setting: then `Cc1ccc(-c2nncs2)cc1-c1ccc(NC(=O)c2ccncc2F)cc1` [Compound 61, 3-Fluoro-N-[5′-([1,3,4]thiadiazol-2-yl)-2′-methyl-biphenyl-4-yl]-isonicotinamide], with 6 nM.
Still for that read-out and setting: then `Cc1ccc(-c2nnc(N)s2)cc1-c1ccc(NC(=O)c2c(F)cccc2F)cc1` [Compound 62, 2,6-Difluoro-N-[2′-methyl-5′-(5-amino-[1,3,4]thiadiazol-2-yl)-biphenyl-4-yl]-benzamide], with 19 nM.
In the case of `Cc1ccc(-c2nnc(N(C)C)s2)cc1-c1ccc(N(C)C(=O)c2c(F)cccc2F)cc1` [Compound 63, 2,6-Difluoro-N-{2′-methyl-5′-[5-(N,N-dimethylamino)-[1,3,4]thiadiazol-2-yl]-biphenyl-4-yl}-N-methyl-benzamide], the IC50 was over 1000 nM.
The same measure, in the same setting: then `Cc1ccc(-c2nnc(N(C)C)s2)cc1-c1ccc(NC(=O)c2c(F)cccc2F)cc1` [Compound 64, 2,6-Difluoro-N-{2′-methyl-5′-[5-(N,N-dimethylamino)-[1,3,4]thiadiazol-2-yl]-biphenyl-4-yl}-benzamide], with 53 nM; and `Cc1ccc(-c2ncnn2C)cc1-c1ccc(NC(=O)c2c(F)cccc2F)cc1` [Compound 66, 2,6-Difluoro-N-[2′-methyl-5′-(2-methyl-2H-[1,2,4]triazol-3-yl)-biphenyl-4-yl]-benzamide], with 8 nM.

Staying with this test, now noted: Homo sapiens, Jurkat, 20 h, read-out: IC50 (inhibition of IL-2 production).
For `Cc1ccc(-c2nnn[nH]2)cc1-c1ccc(NC(=O)c2c(F)cccc2F)cc1` [Compound 65, 2,6-Difluoro-N-[2′-methyl-5′-(1H-tetrazol-5-yl)-biphenyl-4-yl]-benzamide, sodium salt], the IC50 was over 1000 nM.

The test is the same for the next values; noted with them: Homo sapiens; Jurkat cells, PHA 2.5 μg/mL, 20 hours, IL-2 ELISA; read-out: IC50 (inhibition of IL-2 production).
On to `Cc1cnccc1C(=O)Nc1ccc(-c2cc(-c3cnco3)ccc2C)cc1` [Compound 29, 3-Methyl-N-[5′-(oxazol-5-yl)-2′-methyl-biphenyl-4-yl]-isonicotinamide, HCl salt], for which the IC50 was 9 nM.
On the same count and under the same terms, then `Cc1cnccc1C(=O)Nc1ccc(-c2cc(-c3ccno3)ccc2C)cc1` [Compound 34, 3-Methyl-N-[5′-(isoxazol-5-yl)-2′-methyl-biphenyl-4-yl]-isonicotinamide, HCl salt], with 11 nM.

One may read the IC50 as the midpoint of a concentration-inhibition curve.
